This note sets out measurements from paper PMC3133966 (Nature neuroscience, 2011).

Test [1] deals with T1, KCNQ5 (Kv7.5); presynaptic KCNQ5 homomers (Rattus norvegicus, UniProt F1LY25). Kind of test: whole-cell patch clamp of rat calyx of Held, outward K+ current. Conditions: read-out: % inhibition at 100 μM. Format: cell-based.
For test [2], the target named is T1, KCNQ5 (Kv7.5); presynaptic KCNQ5 homomers. The description is as above. Format: cell-based. Conditions: read-out: % of control current remaining at 10 μM.

T1 sequence (F1LY25 1-951): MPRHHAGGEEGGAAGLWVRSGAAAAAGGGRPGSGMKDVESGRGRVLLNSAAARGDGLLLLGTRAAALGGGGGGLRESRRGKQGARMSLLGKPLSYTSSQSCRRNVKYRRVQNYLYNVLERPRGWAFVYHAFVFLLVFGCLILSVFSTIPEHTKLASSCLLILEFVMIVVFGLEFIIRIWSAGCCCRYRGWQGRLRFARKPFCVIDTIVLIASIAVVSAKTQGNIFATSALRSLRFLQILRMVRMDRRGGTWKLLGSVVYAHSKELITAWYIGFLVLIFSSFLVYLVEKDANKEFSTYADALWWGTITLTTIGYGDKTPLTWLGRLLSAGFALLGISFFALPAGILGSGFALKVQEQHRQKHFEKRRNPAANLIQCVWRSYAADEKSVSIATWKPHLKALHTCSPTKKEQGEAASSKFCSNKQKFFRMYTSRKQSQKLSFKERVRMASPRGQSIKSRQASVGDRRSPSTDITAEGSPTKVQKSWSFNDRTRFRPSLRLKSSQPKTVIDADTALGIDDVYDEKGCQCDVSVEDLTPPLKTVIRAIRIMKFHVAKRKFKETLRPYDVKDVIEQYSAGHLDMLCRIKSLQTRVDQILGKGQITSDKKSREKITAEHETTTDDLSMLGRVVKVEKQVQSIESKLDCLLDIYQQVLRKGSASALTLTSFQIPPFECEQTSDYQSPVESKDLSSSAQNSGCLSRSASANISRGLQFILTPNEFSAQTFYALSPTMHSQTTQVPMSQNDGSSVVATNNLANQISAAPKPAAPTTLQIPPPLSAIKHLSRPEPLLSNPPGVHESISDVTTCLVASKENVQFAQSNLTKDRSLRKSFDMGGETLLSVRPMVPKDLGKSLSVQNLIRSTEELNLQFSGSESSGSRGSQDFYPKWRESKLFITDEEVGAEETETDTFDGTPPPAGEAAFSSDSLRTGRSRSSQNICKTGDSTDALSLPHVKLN

For `O=C(O)Cc1ccccc1Nc1c(Cl)cccc1Cl` [diclofenac], the inhibition (commonly the drop in the measured response relative to a control, in per cent) at 100 µM in test [1] was 53 ± 4%. For `O=C1N(c2ccccc2)c2ccccc2C1(Cc1ccncc1)Cc1ccncc1` [linopirdine], the remaining activity at 10 µM in test [2] worked out at 17 ± 4%.
